{"source": "patent US5032577A", "about": "“Peptidylaminodiols” (Abbott Laboratories, priority 1987, dated 1991)", "target": "T1, human renal renin (Homo sapiens, UniProt P00797)", "T1 construct": "human renal renin, free from acid proteolytic activity; from tissue", "T1 sequence (P00797 67-406)": "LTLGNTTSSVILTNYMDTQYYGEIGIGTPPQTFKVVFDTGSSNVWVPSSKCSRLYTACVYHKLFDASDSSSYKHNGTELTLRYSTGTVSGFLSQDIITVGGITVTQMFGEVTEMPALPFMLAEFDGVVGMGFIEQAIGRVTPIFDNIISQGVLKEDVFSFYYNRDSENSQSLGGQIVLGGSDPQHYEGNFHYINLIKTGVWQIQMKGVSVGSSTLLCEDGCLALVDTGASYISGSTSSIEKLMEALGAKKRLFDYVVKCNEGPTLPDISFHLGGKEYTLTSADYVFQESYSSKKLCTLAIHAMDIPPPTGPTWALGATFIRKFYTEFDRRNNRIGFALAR", "assay": "Inhibition of human renal renin in vitro; angiotensin I formed measured by radioimmunoassay", "format": "biochemical", "note": "Counter-ions that a name gives are not always drawn. Like-named read-outs stand apart in the source and are kept apart here."}
{"molecule": "CC(C)C[C@H](O)[C@H](O)[C@H](CC1CCCCC1)NC(=O)[C@H](Cc1c[nH]cn1)NC(=O)[C@H](Cc1ccccc1)NC(=O)c1cnccn1", "note": "[Example 87, (Pyrazin-2-yl-carbonyl)-Phe-His Amide of 2(S)-Amino-1-cyclohexyl-3(R),4(S)-dihydroxy-6-methylheptane]", "values": [{"measurement": "IC50", "result": 0.55, "unit": "nM"}]}
{"molecule": "CC(C)CC[C@H](O)[C@H](O)[C@H](CC1CCCCC1)NC(=O)[C@H](Cc1c[nH]cn1)NC(=O)[C@H](Cc1ccccc1)NC(=O)CC(C)(C)C", "note": "[Example 43, TBA-Phe-His Amide of 2(S)-Amino-1-cyclohexyl-3(R),4(S)-dihydroxy-7-methyloctane]", "values": [{"measurement": "IC50", "result": 5, "unit": "nM"}]}
{"molecule": "CC(C)C[C@H](O)[C@H](O)[C@H](CC1CCCCC1)NC(=O)[C@H](Cc1c[nH]cn1)NC(=O)[C@H](Cc1ccccc1)NC(=O)CC(C)(C)NC(=O)OCc1ccccc1", "note": "[Example 74, Cbz-[(β,β-di-Me)-β-Ala]-Phe-His Amide of 2(S)-Amino-1-cyclohexyl-3(R),4(S)-dihydroxy-6-methylheptane]", "values": [{"measurement": "IC50", "result": 0.7, "unit": "nM"}]}
{"molecule": "CC(C)C[C@@H](O)[C@@H](O)[C@H](CC1CCCCC1)NC(=O)[C@H](Cc1c[nH]cn1)NC(=O)[C@H](Cc1ccccc1)NC(=O)OC(C)(C)C", "note": "[Example 18, Boc-Phe-His Amide of 2(S)-Amino-l-cyclohexyl-3(S),4(R)-dihydroxy-6-methylheptane]", "values": [{"measurement": "IC50", "setting": "human renal renin free from acid proteolytic activity, renin substrate human angiotensinogen, 37° C., pH 6.0", "result": 95, "unit": "nM"}]}
{"molecule": "COc1ccc(C[C@H](NC(=O)CCCCCN)C(=O)N[C@@H](Cc2c[nH]cn2)C(=O)N[C@@H](CC2CCCCC2)[C@@H](O)[C@@H](O)CC(C)C)cc1", "note": "[Example 173, 6-Aminohexanoyl-(4-methoxy)Phe-His Amide of (2S, 3R, 4S)-2-Amino-1-cyclohexyl-3,4-dihydroxy-6-methylheptane Diacetate Salt]", "values": [{"measurement": "IC50", "result": 0.9, "unit": "nM"}]}
